Measurements as given in PMC11513893, “Discovery of Oral Degraders of the ROS1 Fusion Protein with Potent Activity against Secondary Resistance Mutations” (Journal of Medicinal Chemistry, 2024).
One block for each compound: values may come before it.

Experiments:
[1] = Metabolic stability in rat microsomes; assay type: in vitro ADME; details: rat, pooled rat microsomes, pH 7.4, 250 nM compound, NADPH, 37 °C
Method: (§1) Pooled human and rat microsomes were prepared and stored at −80 °C prior to use. A master-mix containing microsome, phosphate buffer, and test compound (9 series) solution was made as follows: (1) 3 μL of microsome (20 mg/mL) was diluted with mixed 30 μL of potassium phosphate buffer (pH 7.4; 10×) and 246 μL of water; (2) 3 μL of 25 μM drug solution was added to the microsome; (3) the master solution was prewarmed at 37 °C for 5 min. NADPH solution A (15 μL) and NADPH solution B (3 μL) from Promega were added to the above-mentioned master solution to initiate the reaction. The final concentration of 9 compounds in the reaction system was 250 nM. An aliquot of 20 μL was pipetted from the reaction solution and stopped by the addition of 180 μL of cold MeCN containing 25 ng of Tamoxifen-(N,N-dimethyl-13C2)-15N as an internal standard at the designated time points (0, 5, 15, 30, 45, and 60 min). The incubation solution was vortexed-mixed (800 rpm/10 min) and centrifuged at 3500 rpm for 10 min to precipitate proteins. The supernatant was collected and used for the LC/MS/MS analysis. The natural log of the remaining percentage of the test compound was plotted against time and the gradient of the line was determined.

[2] = Pharmacokinetics study in Sprague–Dawley rats; assay type: in vivo; details: rat
Method: Four to 6 weeks old Sprague–Dawley rats [Crl: CD (SD)] (SPF/VAF) were purchased from Charles River (Wilmington MA). Animals were quarantined/acclimated for 2–6 weeks prior to dose initiation. Sprague–Dawley rats were given oral administration of test compounds (20% PG, 5% Solutol, and 75% of 20% HP-β-CD in water) at different dose levels. After treatment with the compounds, whole blood was collected from each study animal by puncture of the tail vein (0.4 mL of whole blood from rats) into tubes containing K2EDTA at each time point. The plasma samples were divided into 2 aliquots (approximately equal in volume) and stored frozen at −75 ± 15 °C within 2 h of the collection until analysis.
The stock solution of the test compound (0.01 M) in DMSO was prepared and stored at −20 ± 5 °C. The desired serial concentrations of working reference analyte solutions were achieved by diluting a stock analyte solution with 50% acetonitrile (0.1% formic acid) in water solution. The bioanalytical LC–MS/MS method was developed for quantitative determination of each test compound in Sprague–Dawley rat plasma with acceptable selectivity, sensitivity, calibration curve, precision, and accuracy. The analytical method is applicable for the determination of test compounds in Sprague–Dawley rat plasma with a lower limit of quantification of 10.0 ng/mL and an upper limit of quantification of 5000 ng/mL. Five microliters of diluted supernatant was injected into the LC–MS/MS system (TSQ Quantis) and a SynergiTM 4 μm Fusion-RP 80 Å (50 × 2 mm) column using gradient elution and a Triple Quad mass spectrometer) for quantitative analysis. The mobile phases used were 0.1% formic acid in deionized water and 0.1% formic acid in acetonitrile. The pharmacokinetic parameters T1/2 (the biological half-life), Cmax (maximal concentration), Tmax (time at which Cmax is observed), and AUC (area under the plasma concentration–time curve) were calculated from the plasma concentration versus time data using WinNonlin (PhoenixTM, version 8.1, Mountain View, CA, USA).

[3] = Metabolic stability in human microsomes; assay type: in vitro ADME; details: human, pooled human microsomes, pH 7.4, 250 nM compound, NADPH, 37 °C
Method: as §1

Ba/F3 ROS1-G2032R = assay: Antiproliferation assay; assay type: cell-based, mouse; details: Mus musculus, BaF3; Ba/F3 cells, cell growth inhibition, 72 h
[4] = system: Ba/F3 CD74-ROS1 non mutant; assay: Antiproliferation assay (Alamar Blue, 72 h); assay type: cell-based, mouse; details: Mus musculus, BaF3, 72 h, Ba/F3 cells, cell growth inhibition
Log P measurement = assay type: physicochemical
Description: An important physicochemical property for a PROTAC molecule is its lipophilicity that largely dictates its pharmaceutical performance such as absorption, permeability, and distribution.

[5] = Pharmacokinetics study in Sprague–Dawley rats; assay type: in vivo; details: rat, 0.5 mg/kg iv
ROS1 = ROS1 degradation in Ba/F3 cells (WES immunoblotting); assay type: cell-based
Procedure, shortened: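 ROS1 and phospho-ROS1 (Tyr2274/2334) in Ba/F3 lysates quantified by capillary immunoassay (WES) with chemiluminescent detection, duplicate experiments. Levels expressed as AUC of the chemiluminescence peak.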

[6] = system: Ba/F3 ROS1 (SLC34A2) F2075C-G1837E; assay: Antiproliferation assay; assay type: cell-based; details: Mus musculus, BaF3; Ba/F3 cell line
Method: (§2) Ba/F3 immortalized murine bone marrow–derived pro-B cells were obtained from Creative Biogene (Shirley, NY) and cultured in RPMI supplemented with 10% FBS and IL3 (0.5 ng/mL). Ba/F3 cells expressing ROS1 variants were maintained in RPMI supplemented with 10% FBS and puromycin (0.7 mg/mL). Crizotinib, ceritinib, brigatinib, repotrectinib, and lorlatinib were purchased from MedChem Express. Each compound was dissolved in DMSO and serially diluted in RPMI for cell culture experiments.
(§3) To assess the 72 h effect of drug treatment on cell proliferation, 2000 to 3000 cells were plated in replicates of three in 96-well plates. The plates were placed in an incubator at 37 °C, 5% CO2 for 72 h. Following drug treatments, the cells were incubated with the Alamar Blue Assay reagent (BioRad), 5 μL each well for 4 h at 37 °C and 5% CO2. Luminescence was measured on a multiplate reader and analyzed. […] IC50 values were determined using a nonlinear regression model with a sigmoidal dose response in GraphPad. The data were collected based on triplicate experiments, and presented as mean ± SD.

[7] = system: Ba/F3 ROS1 (SLC34A2) G2032R-F2075C; assay: Antiproliferation assay; assay type: cell-based; details: Mus musculus, BaF3; Ba/F3 cell line
Method: as §2, §3

[8] = system: Ba/F3 ROS1 (SLC34A2) G2032R-D2113G; assay: Antiproliferation assay; assay type: cell-based; details: Mus musculus, BaF3; Ba/F3 cell line
Method: as §2, §3

[9] = system: Ba/F3 ROS1 (CD74) S1986F-L2086F; assay: Antiproliferation assay; assay type: cell-based; details: Mus musculus, BaF3; Ba/F3 cell line
Method: as §2, §3
(§4) cDNA encoding CD74-ROS1 or mutant CD74–ROS1 was cloned into retroviral expression vectors (pLenti), and viruses were generated in HEK293T cells by transfecting with packaging plasmids. The resulting virus was used to infect Ba/F3 cells. After retroviral infection, Ba/F3 cells were selected by incubation with puromycin (0.7 mg/mL) for 2 weeks. For Ba/F3 cells infected by the CD74–ROS1 variants, IL3 was withdrawn from the culture medium at least 2 weeks before the experiments.

Ba/F3 ROS1 (CD74) G2032R = assay: Antiproliferation assay; assay type: cell-based; details: Mus musculus, BaF3; Ba/F3 cell line
Method: as §2, §3, §4

[10] = system: Ba/F3 ROS1 (CD74) S1986F-G2032R-L2086F; assay: Antiproliferation assay; assay type: cell-based; details: Mus musculus, BaF3; Ba/F3 cell line
Method: as §2, §3, §4

[11] = system: Ba/F3 ROS1 (CD74) S1986F-G2032R; assay: Antiproliferation assay; assay type: cell-based; details: Mus musculus, BaF3; Ba/F3 cell line
Method: as §2, §3, §4

Ba/F3 ROS1 (CD74) L2086F = assay: Antiproliferation assay; assay type: cell-based; details: Mus musculus, BaF3; Ba/F3 cell line
Method: as §2, §3, §4

[12] = system: Ba/F3 ROS1 (CD74) G2032R-L2086F; assay: Antiproliferation assay; assay type: cell-based; details: Mus musculus, BaF3; Ba/F3 cell line
Method: as §2, §3, §4

Ba/F3 ROS1 G2032R-F2075V = assay: Antiproliferation assay; assay type: cell-based; details: Mus musculus, BaF3; Ba/F3 cells, cell growth inhibition
Description: (§5) To assess targeted degradation of ROS1 fusion proteins, we first established a mouse pro-B cell line Ba/F3 as a model expressing the CD74-ROS1 oncogene or CD74-ROS1 with clinically observed secondary/tertiary mutations. The Ba/F3 cell line is dependent on interleukin-3 for survival and proliferation. Upon transduction of oncogenic ROS1, Ba/F3 cells become independent of interleukin-3 but dependent on the transduced driver gene.
as §2, with “Crizotinib, ceritinib, brigatinib, repotrectinib, and lorlatinib were purchased from MedChem Express.” left out
as §3
(§6) The resulting virus was used to infect Ba/F3 cells. After retroviral infection, Ba/F3 cells were selected by incubation with puromycin (0.7 mg/mL) for 2 weeks. For Ba/F3 cells infected by the CD74–ROS1 variants, IL3 was withdrawn from the culture medium at least 2 weeks before the experiments.

Ba/F3 ROS1 D2033N = assay: Antiproliferation assay; assay type: cell-based; details: Mus musculus, BaF3; Ba/F3 cells, cell growth inhibition
Description: as §5
as §2, with “Crizotinib, ceritinib, brigatinib, repotrectinib, and lorlatinib were purchased from MedChem Express.” left out
as §3, §6

Ba/F3 ROS1 L2026M = assay: Antiproliferation assay; assay type: cell-based; details: Mus musculus, BaF3; Ba/F3 cells, cell growth inhibition
Description: as §5
as §2, with “Crizotinib, ceritinib, brigatinib, repotrectinib, and lorlatinib were purchased from MedChem Express.” left out
as §3, §6

[13] = system: Ba/F3 ROS1 (SLC34A2) G2032R-F2075 V; assay: Antiproliferation assay; assay type: cell-based; details: Mus musculus, BaF3; Ba/F3 cell line
Method: as §2, with “Crizotinib, ceritinib, brigatinib, repotrectinib, and lorlatinib were purchased from MedChem Express.” left out
as §3

[14] = system: Ba/F3 ROS1 (SLC34A2) L2026M; assay: Antiproliferation assay; assay type: cell-based; details: Mus musculus, BaF3; Ba/F3 cell line
Method: as §2, with “Crizotinib, ceritinib, brigatinib, repotrectinib, and lorlatinib were purchased from MedChem Express.” left out
as §3

[15] = system: Ba/F3 ROS1 (SLC34A2) G2032R; assay: Antiproliferation assay; assay type: cell-based; details: Mus musculus, BaF3; Ba/F3 cell line
Method: as §2, with “Crizotinib, ceritinib, brigatinib, repotrectinib, and lorlatinib were purchased from MedChem Express.” left out
as §3

[16] = system: Ba/F3 ROS1 (SLC34A2) D2033N; assay: Antiproliferation assay; assay type: cell-based; details: Mus musculus, BaF3; Ba/F3 cell line
Method: as §2, with “Crizotinib, ceritinib, brigatinib, repotrectinib, and lorlatinib were purchased from MedChem Express.” left out
as §3

Ba/F3 ROS1 L2086F = assay: Antiproliferation assay; assay type: cell-based; details: Mus musculus, BaF3; Ba/F3 cells, cell growth inhibition
Description: as §5, with “gene. The Ba/F3 models have been effectively employed in the discovery and preclinical development of next generation ROS1 inhibitors.[11],[14],[15] We have tested ROS1 inhibitors against these Ba/F3 cells to validate their sensitivity and resistance to ROS1 inhibition.” for “gene.”
as §2, §3, §4

microsomal CLint at 1 h, 0.25 µM [1]: 9.6 µL/min/mg
half-life at 1 h, 0.25 µM ([1]; read-out: metabolic stability in rat microsomes T1/2): 2.41 h
Cmax at 24 h ([2]; Sprague-Dawley [Crl: CD (SD)], plasma, 5 mg/kg po): 145 ng/mL
bioavailability ([2]; Sprague-Dawley [Crl: CD (SD)], plasma, 5 mg/kg po vs 0.5 mg/kg iv): 4.8%
AUC (po) ([2]; 5 mg/kg po): 1032 ng·h/mL
T1/2 ([2]; 5 mg/kg po): 8.88 h
Tmax ([2]; 5 mg/kg po): 1 h
microsomal CLint at 1 h, 0.25 µM [3]: 94.5 µL/min/mg
half-life at 1 h, 0.25 µM ([3]; read-out: metabolic stability in human microsomes T1/2): 0.615 h
IC50 (Ba/F3 ROS1-G2032R): 120 ± 27 nM
IC50 [4]: 8 ± 0.9 nM
logP (Log P measurement): 3.07
AUC (iv) [5]: 2151 ng·h/mL
DC50 (ROS1; concentration needed to reduce ROS1 protein by 50%, Ba/F3 cells): 9 nM
Compound: COc1cc(N2CCN(CC3CN(c4ccc5c(c4)CN(C4CCC(=O)NC4=O)C5=O)C3)CC2)ccc1Nc1ncc(Cl)c(Nc2ccccc2P(C)(C)=O)n1 (stereo not drawn) [9m, 3-(5-(3-((4-(4-((5-Chloro-4-((2-(dimethylphosphoryl)phenyl)amino)pyrimidin-2-yl)amino)-3-methoxyphenyl)piperazin-1-yl)methyl)azetidin-1-yl)-1-oxoisoindolin-2-yl)piperidine-2,6-dione]
Dmax (%) (ROS1) (ROS1; maximal degradation of ROS1 in Ba/F3 cells): 94%

Compound: COc1cc(N2CCC(N3CCN(C)CC3)CC2)ccc1Nc1ncc(Cl)c(Nc2ccccc2P(C)(C)=O)n1 [brigatinib]
IC50 [6]: 8.1 ± 2.2 nM
IC50 [7]: 869 ± 148 nM
IC50 [8]: 215 ± 50.3 nM
IC50 (Ba/F3 ROS1-G2032R): 265 ± 73 nM
IC50 [9]: 329 ± 85.5 nM
IC50 (Ba/F3 ROS1 (CD74) G2032R): 513 ± 118 nM
IC50 [10]: > 2000 nM
IC50 [11]: 488 ± 96.8 nM
IC50 (Ba/F3 ROS1 (CD74) L2086F): 172 ± 47.6 nM
IC50 [12]: 694 ± 204 nM
IC50 (Ba/F3 ROS1 G2032R-F2075V): 327 ± 43 nM
IC50 (Ba/F3 ROS1 D2033N): 114 ± 17 nM
IC50 (Ba/F3 ROS1 L2026M): 48 ± 4 nM
IC50 [13]: 327 ± 44.8 nM
IC50 [14]: 47.8 ± 10.2 nM
IC50 [15]: 490 ± 38.4 nM
IC50 [16]: 114 ± 25.3 nM
IC50 (Ba/F3 ROS1 L2086F): 172 ± 24 nM
